Patent US6384086B1, “Ethene containing solutions and use thereof in methods of therapy or prophylaxis” (priority 1996, dated 2002)

What was measured:
Hepatitis C = assay: trial on a Hepatitis C sufferer, ALT count as infection marker; type: in vivo, human; settings: for reduction of ALT count: over 16 week trial period, same trialist, interferon 9 million IU weekly
[1] = test system: Poliovirus type 1 (Sabin)
[2] = test system: eight bacterial strains representing four bacterial genera (Staphylococcus, Pseudomonas, Klebsiella, Enterococcus)
[3] = liquid containing reactive components

Row | Compound | anti-Hepatitis C efficacy better than the interferon therapy (Hepatitis C; ALT reduction over 16 weeks) | depression (reported by trialist) (Hepatitis C; during therapy) | ALT count (Hepatitis C; end of week 4 (from 242), daily 230 millilitres ethene gas in 745 millilitres purified water) | ALT count (Hepatitis C; end of week 6) | ALT count (Hepatitis C; end of week 14) | infection symptoms (Hepatitis C; first 18 days therapy) | reduction of ALT count (Hepatitis C) | ALT count (Hepatitis C; week 16) | sterilizing effect in vitro (Influenza A (H3N2)) | sterilizing effect in vitro [1] | sterilizing effect in vitro (Herpes simplex virus) | sterilizing effect in vitro [2] | reduction of ethene in solution by reaction with other components [3]
1 | C=C [ethene] | 337% | significant lifting | 218 u/l | 303 u/l | 93 u/l | amelioration of infection symptoms | 153 u/l | 89 u/l | not to be sterilized | not to be sterilized | not to be sterilized | without apparent sterilizing success | 50%
2 | interferon [reference compound] | – | – | – | – | – | – | 35 u/l | – | – | – | – | – | –
